This is an account of results in patent US20030104393A1, “Blood assessment of injury” (priority 2000, published 2003).

This assay has as its system blood cells. Put plainly: Blood pattern of gene expression in epileptic individuals treated with anticonvulsant valporate or carbamazepine (Affymetrix U95A, SAM). It counts as in vivo, human. Conditions: for Upregulated genes for Carbamazepine: blood of epileptic individuals treated with carbamazepine vs epileptic individuals taking no anticonvulsant, value = Genbank accession of the upregulated gene; for Pattern of expression in blood for each drug: epileptic individuals treated with anticonvulsant vs epileptic individuals taking no anticonvulsant, FIG. 5. An excerpt: FIG. 5 is a cluster analysis of the expression obtained from pediatric epilepsy patients prior to being treated compared to the expression of these individuals after being treated with anticonvulsant valporate (VPA) or the anticonvulsant carbamazepine (CPZ), as described in the Example 8;
To study the gene expression in Parkinson's patients, blood from over 30 patients is collected from healthy controls as well as from patients with a variety of disorders, including idiopathic Parkinson's patients with bradykinesia, rigidity and the characteristic tremor without dementia or evidence of any other neurological findings; progressive supranuclear palsy, bipolar disorder, schizophrenia, epilepsy, and Tourettes. A commercially available kit (Qiagen) is used to the blood cells from the whole blood samples, and total RNA isolated from the white blood cells. Two thirds of the RNA is used on DNA microarrays, and one third is used for PCR confirmation of the genes that are changed. After the purity of the RNA is checked ([…]), cDNA is synthesized from the total RNA and used to make biotin labeled cRNA. The cRNA is then applied to Affymetrix chips, human U95A chips that can screen for the expression of over 13,000 human genes including 11,000 known genes and 2,000 ESTs, and processed and scanned according to manufacturer's instructions. The chips are scanned twice for each patient sample. Genes that are expressed over two-fold compared to normals are plotted on figures. These genes are confirmed using standard techniques including PCR, Northern blotting or Western blotting. A separate statistical analysis is also applied to the data. […] Once this analysis is performed, the data is used to perform a class prediction analysis. […] The expression value of the genes is shown on the Y axis and the individual patients are plotted on the X-axis.
Blood is obtained from epileptic individuals, epileptic individuals being treated with anticonvulsant valporate and epileptic individuals being treated with anticonvulsant carbamazepine. A pattern of expression is captured and analyzed for each injury state as described in Example 4.

Consider `NC(=O)N1c2ccccc2C=Cc2ccccc21` [Carbamazepine, carbamazepine], for which the “Pattern of expression in blood for each drug” value was “different from each other and different from the controls”. The “Upregulated genes for Carbamazepine” value (gene AA883870: am26f01.s1 Homo sapiens cDNA, 3 end) is given as “AA883870”. Moreover, for the setting “gene AB000824: Homo sapiens mRNA for trehalase, complete cds”, the “Upregulated genes for Carbamazepine” value is “AB000824”.

`CCCC(CCC)C(=O)O` [Valporate, valporate]: the “Pattern of expression in blood for each drug” value is “different from each other and different from the controls”.
